# Activity calls are given as the source filed them.
# Assays:
# [1] = target: Induced myeloid leukemia cell differentiation protein Mcl-1 (Homo sapiens, UniProt Q07820); format: functional
# [2] = tested on: Vero; experiment: Vero cell cytotoxicity, cytotoxicity control for flavivirus capping enzyme inhibitors (AID 588742); format: functional; conditions: Chlorocebus sabaeus
# [3] = target: T1, Hexokinase HKDC1 (Homo sapiens, UniProt Q2TB90); experiment: SAR analysis of small molecule inhibitors of hexokinase domain containing I (HKDC1). [Related pubchem assays (depositor defined):AID493160, AID493190]; format: functional
# T1 sequence (Q2TB90 whole entry): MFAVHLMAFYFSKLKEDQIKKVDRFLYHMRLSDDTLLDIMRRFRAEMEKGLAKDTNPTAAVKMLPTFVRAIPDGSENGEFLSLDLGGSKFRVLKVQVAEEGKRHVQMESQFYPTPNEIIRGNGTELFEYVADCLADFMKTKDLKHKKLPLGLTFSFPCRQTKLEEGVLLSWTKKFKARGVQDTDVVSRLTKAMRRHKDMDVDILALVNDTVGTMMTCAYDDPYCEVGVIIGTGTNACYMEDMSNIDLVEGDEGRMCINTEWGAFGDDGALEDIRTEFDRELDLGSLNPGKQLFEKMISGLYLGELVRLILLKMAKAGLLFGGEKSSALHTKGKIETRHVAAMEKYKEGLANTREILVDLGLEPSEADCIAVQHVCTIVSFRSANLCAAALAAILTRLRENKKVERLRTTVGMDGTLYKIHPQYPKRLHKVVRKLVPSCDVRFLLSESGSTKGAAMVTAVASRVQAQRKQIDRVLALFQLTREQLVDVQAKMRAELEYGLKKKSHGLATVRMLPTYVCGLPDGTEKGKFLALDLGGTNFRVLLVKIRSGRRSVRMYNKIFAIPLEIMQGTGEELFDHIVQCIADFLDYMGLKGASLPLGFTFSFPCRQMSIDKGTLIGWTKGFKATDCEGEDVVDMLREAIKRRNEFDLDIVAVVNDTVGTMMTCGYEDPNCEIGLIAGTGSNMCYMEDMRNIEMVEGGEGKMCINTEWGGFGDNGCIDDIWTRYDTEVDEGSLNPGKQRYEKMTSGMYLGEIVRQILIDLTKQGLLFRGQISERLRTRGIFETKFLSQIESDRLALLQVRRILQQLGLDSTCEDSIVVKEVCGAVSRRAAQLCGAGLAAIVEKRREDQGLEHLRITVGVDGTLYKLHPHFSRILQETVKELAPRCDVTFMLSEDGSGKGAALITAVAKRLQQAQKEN
# [4] = target: T2, Hexokinase-1 (Homo sapiens, UniProt P19367); experiment: SAR analysis of small molecule inhibitors of hexokinase domain containing I (HKDC1) in the hexokinase 1 selectivity assay. [Related pubchem assays (depositor defined):AID493160, AID493190]; format: functional
# T2 sequence (P19367 whole entry): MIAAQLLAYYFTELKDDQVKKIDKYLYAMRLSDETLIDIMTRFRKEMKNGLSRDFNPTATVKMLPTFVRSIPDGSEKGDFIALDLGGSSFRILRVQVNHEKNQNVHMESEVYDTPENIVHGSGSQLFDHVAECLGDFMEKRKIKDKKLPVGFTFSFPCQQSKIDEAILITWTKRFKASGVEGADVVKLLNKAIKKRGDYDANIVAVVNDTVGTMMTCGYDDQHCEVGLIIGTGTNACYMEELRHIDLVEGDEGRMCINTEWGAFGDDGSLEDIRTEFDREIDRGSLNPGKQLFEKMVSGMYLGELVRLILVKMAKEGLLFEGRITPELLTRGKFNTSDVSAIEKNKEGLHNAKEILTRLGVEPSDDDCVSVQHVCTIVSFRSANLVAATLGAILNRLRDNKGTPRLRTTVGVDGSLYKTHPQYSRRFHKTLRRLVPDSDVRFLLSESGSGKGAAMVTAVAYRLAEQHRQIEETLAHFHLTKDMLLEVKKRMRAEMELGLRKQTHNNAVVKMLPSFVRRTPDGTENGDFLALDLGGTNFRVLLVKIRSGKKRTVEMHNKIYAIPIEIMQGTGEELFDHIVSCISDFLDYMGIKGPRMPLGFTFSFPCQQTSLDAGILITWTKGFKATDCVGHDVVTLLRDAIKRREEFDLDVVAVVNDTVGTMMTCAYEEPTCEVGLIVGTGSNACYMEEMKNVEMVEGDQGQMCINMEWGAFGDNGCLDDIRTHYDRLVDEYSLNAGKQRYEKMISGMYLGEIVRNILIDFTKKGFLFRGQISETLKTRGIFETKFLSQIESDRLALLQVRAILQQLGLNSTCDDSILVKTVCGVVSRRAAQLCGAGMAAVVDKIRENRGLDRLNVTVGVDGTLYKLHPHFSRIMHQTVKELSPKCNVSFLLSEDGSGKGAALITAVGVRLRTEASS
# [5] = target: Beta-galactosidase (Escherichia coli, UniProt Q8VNN2); experiment: PubChem AID 485352; format: functional
# [6] = target: T3, Type-1 angiotensin II receptor (Homo sapiens, UniProt P30556); experiment: AT1 receptor antagonists, dose response, selectivity assay for APJ receptor antagonist project, cell-based, uHTS hits (AID 463214); format: functional;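 note: antagonist potency against angiotensin II stimulated AT1 response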
# T3 sequence (P30556 whole entry): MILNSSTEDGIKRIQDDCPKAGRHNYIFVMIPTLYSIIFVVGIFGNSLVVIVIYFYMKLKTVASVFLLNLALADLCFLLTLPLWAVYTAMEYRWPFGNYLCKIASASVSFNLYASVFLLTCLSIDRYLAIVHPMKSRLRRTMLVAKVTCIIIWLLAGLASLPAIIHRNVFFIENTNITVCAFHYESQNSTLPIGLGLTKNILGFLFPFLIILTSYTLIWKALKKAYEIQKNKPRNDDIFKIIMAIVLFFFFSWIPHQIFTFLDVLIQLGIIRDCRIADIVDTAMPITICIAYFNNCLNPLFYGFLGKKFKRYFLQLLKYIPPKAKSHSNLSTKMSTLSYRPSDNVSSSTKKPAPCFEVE
# [7] = NIH-3T3 fibroblast cytotoxicity, dose response, cytotoxicity control, cell-based, fluorescence, Alamar Blue, secondary assay (AID 2327); format: functional;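 note: NIH-3T3 mouse fibroblasts cultured with fluconazole at 8 µg/mL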
# [8] = target: T4, Polyadenylate-binding protein 1 (Homo sapiens, UniProt P11940); experiment: PABP1 MLLE–PAM2 binding inhibitor potency, dose response, biochemical, fluorescence polarization, FITC-PAM2 peptide (AID 602259); format: functional; conditions: read-out: IC50_Mean
# [9] = target: ATP-dependent molecular chaperone HSP82 (Candida albicans (strain WO-1) (Yeast), UniProt C4YTQ8); experiment: loss of DOC-induced GRE-beta-galactosidase reporter signal, dose response, Hsp90 inhibitor project, S. cerevisiae, luminescence (AID 2400); format: functional, cell-based;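 note: beta-galactosidase luminescence from glucocorticoid response element reporter as proxy for Hsp90 function; inhibitor potency where signal loss means Hsp90 inhibition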
# [10] = target: T4, Polyadenylate-binding protein 1; experiment: PABP1 MLLE–PAM2 interaction inhibitors, dose response, miRNA deadenylation inhibitor project, biochemical, fluorescence polarization, Cy5-PAM2 peptide, secondary (AID 602260); format: functional; conditions: read-out: IC50_Mean
# [11] = C. albicans growth with fluconazole, confirmation, fluorescence, retest (AID 2467); format: functional, cell-based
# [12] = target: Serine/threonine-protein phosphatase (Candida dubliniensis (strain CD36 / CBS 7987 / NCPF 3949 / NRRLY-17841) (Yeast), UniProt B9W6M3); experiment: calcineurin pathway inhibitors in yeast reporter, dose response, S. cerevisiae, CDRE-lacZ, luminescence, secondary (AID 2388); format: functional, cell-based;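 note: yeast reporter cells carrying a calcineurin-responsive lacZ construct stimulated with calcium chloride; luminescent beta-galactosidase reporter signal in whole cells rather than isolated phosphatase activity; potency for inhibition where a drop in reporter signal means calcineurin blockade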
# [13] = tested on: Escherichia coli; experiment: microbe, parasite or virus in culture
# T4 sequence (P11940 whole entry): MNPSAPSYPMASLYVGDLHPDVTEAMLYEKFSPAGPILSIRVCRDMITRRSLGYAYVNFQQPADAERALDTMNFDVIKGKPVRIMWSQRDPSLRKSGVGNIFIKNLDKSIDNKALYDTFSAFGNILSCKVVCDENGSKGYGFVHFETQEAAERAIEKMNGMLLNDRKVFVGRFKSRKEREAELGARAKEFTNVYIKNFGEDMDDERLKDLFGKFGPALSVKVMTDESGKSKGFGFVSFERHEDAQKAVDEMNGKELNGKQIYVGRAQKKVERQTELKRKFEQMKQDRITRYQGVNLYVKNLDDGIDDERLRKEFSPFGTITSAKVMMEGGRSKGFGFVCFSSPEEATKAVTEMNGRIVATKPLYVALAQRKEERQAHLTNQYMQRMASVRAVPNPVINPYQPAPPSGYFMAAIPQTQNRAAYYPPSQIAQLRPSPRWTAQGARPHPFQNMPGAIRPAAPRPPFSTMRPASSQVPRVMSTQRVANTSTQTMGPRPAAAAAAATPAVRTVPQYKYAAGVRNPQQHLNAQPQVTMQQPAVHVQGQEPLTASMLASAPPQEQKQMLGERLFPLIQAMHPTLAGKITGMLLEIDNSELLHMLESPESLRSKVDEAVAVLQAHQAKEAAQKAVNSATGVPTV
# Beta-galactosidase, sequence (Q8VNN2 whole entry): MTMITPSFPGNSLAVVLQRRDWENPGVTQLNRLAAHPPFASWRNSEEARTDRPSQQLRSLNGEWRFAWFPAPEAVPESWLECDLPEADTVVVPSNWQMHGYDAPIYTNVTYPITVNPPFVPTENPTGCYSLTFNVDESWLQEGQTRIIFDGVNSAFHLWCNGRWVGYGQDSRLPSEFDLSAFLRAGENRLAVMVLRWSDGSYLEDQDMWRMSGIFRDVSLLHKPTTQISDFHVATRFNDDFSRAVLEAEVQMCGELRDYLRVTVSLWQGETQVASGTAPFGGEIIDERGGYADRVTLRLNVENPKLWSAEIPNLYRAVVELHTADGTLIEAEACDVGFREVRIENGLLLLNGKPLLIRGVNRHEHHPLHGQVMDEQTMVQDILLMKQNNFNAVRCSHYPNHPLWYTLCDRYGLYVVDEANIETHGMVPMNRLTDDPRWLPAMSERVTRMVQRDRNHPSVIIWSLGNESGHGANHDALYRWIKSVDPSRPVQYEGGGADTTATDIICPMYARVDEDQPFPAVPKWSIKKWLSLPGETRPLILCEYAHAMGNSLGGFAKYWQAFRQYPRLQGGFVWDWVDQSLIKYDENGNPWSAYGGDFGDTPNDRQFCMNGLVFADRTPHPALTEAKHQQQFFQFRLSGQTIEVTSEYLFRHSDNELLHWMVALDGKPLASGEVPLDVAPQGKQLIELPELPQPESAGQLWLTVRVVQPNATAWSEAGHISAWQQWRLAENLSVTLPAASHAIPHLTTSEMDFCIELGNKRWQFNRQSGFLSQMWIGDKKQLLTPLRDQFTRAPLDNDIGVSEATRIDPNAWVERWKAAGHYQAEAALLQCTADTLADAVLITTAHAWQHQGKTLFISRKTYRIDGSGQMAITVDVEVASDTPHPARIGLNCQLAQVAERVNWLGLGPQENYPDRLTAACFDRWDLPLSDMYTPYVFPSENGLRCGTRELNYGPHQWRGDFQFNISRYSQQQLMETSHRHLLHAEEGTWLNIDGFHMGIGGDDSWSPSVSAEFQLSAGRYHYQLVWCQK
# Induced myeloid leukemia cell differentiation protein Mcl-1, sequence (Q07820 whole entry): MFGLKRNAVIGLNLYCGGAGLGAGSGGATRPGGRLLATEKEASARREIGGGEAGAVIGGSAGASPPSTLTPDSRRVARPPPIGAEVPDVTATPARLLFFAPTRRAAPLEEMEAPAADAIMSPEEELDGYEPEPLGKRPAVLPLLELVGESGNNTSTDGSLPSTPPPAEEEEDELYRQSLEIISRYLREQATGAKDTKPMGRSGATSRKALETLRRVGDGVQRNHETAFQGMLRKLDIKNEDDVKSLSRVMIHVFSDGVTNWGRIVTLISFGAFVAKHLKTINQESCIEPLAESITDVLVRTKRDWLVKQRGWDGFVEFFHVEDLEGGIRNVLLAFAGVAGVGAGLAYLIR
# Serine/threonine-protein phosphatase, sequence (B9W6M3 whole entry): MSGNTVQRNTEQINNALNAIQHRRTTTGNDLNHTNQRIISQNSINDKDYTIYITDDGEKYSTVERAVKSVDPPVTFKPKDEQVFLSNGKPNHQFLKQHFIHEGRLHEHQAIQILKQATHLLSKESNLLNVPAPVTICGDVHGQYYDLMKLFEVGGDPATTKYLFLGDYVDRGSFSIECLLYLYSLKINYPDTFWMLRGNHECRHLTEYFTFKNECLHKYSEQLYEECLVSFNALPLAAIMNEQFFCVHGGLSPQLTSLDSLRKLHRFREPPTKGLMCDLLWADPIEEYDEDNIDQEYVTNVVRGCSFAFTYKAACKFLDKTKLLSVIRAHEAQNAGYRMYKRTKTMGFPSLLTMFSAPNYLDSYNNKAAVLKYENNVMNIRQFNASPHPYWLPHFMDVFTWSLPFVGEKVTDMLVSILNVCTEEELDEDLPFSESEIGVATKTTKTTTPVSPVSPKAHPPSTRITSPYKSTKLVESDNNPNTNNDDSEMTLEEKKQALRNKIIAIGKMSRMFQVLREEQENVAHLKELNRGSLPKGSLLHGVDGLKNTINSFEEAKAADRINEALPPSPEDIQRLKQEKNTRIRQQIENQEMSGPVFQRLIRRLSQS
# ATP-dependent molecular chaperone HSP82, sequence (C4YTQ8 whole entry): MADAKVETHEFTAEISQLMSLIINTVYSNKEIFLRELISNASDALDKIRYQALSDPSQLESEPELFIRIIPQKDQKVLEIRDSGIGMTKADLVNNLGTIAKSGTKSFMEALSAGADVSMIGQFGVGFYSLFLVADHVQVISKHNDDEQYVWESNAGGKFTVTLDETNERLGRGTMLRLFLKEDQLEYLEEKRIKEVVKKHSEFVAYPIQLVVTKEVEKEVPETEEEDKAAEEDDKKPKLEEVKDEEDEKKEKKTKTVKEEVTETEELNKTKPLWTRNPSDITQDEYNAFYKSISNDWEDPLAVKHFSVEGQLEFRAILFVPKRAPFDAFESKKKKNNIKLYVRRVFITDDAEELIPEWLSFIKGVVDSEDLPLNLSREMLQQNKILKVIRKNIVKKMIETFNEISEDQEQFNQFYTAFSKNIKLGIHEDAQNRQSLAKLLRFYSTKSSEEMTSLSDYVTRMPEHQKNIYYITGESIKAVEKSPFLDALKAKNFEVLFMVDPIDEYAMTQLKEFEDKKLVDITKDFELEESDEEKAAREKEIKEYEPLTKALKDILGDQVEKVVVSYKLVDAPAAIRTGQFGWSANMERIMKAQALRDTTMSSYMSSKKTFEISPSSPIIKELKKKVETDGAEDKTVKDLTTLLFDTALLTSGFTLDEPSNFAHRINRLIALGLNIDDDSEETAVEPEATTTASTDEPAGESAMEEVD
smiles,measurement,setting,value
CNc1ccc(Br)cc(C(=O)/C=C/c2ccc(OC)cc2OC)c1=O,IC50,[1],2.17 µM (active)
same,CC50,[2],> 40 µM (active)
O=C(CSc1nc2ccccc2[nH]1)Nc1cccc(S(=O)(=O)N2CCOCC2)c1,IC50,[3],> 80 µM (inactive)
same,IC50,[4],> 80 µM (inactive)
Cc1cc(O)ccc1NC(=S)NC(=O)c1cncc(Br)c1,EC50,[5],> 40 µM (inactive)
same,IC50,[6],10.5 µM (active)
same,EC50,[7],> 160 µM (inconclusive)
same,IC50,[8],> 66 µM (inactive)
same,EC50,[9],> 160 µM (inactive)
same,IC50,[10],> 66 µM (inactive)
same,EC50,[11],1.05 µM (active)
same,EC50,[12],> 180 µM (inactive)
CC(C)(C)CC(=O)Nc1cccc(-c2cn3cccnc3n2)c1,AC50,[13],45.2 µM (active)

# From ChEMBL document CHEMBL1201862, “PubChem BioAssay data set” (2004)
